The structures appear in SMILES notation.

This series is described as follows: pK of the ionizable lipid (Table 6A). The class given is physicochemical. As to conditions: ionizable lipid of the Table 6A formulation.

The compound `CCCCCCCC/C=C\CCCCCCCC(=O)Oc1ccc(CC(=O)OCCC2CCN(CCSSCCN3CCC(CCOC(=O)Cc4ccc(OC(=O)CCCCCCC/C=C\CCCCCCCC)cc4)CC3)CC2)cc1` [SS-OP] showed a pK of roughly 6.4.

Values taken from US12721818B2, “Compositions and methods for delivery of RNA” (Rejuvenation Technologies Inc., priority 2021, dated 2026).
